According to article PMC8619434 (Viruses, 2021):
Where a name gives a salt, the structure may show the parent alone. *1 amine or outer side, *2 acyl side, *3 side chain or, on linkers, in order; H or OH if unused. Where a SMILES comes first, the peptide text is derived from it. Bridges are numbered along the chain shown (N, C = ends). [ ]: non-standard residue; d: D form. The star is where a group is joined. pTerphenylCO(4''-OnC5H11) = CCCCCOc1ccc(-c2ccc(-c3ccc(C(=O)*)cc3)cc2)cc1; Orn(4R-OH,5R-OH) = O=C([C@H](C[C@@H](O)[C@@H](O)N[*:3])N[*:1])[*:2]; hTyr(3S-OH,4S-OH) = N[C@H](C(=O)O)[C@H](O)[C@@H](O)c1ccc(O)cc1; Pro(3S-OH,4S-Me) = C[C@H]1CN[C@H](C(=O)O)[C@H]1O; Hyp = O=C(O)[C@@H]1C[C@@H](O)CN1

Columns and labels:
in vitro = conditions: human
VSV-G pseudovirus = assay: microbe, parasite or virus in culture; format: cell-based, vesicular stomatitis virus; conditions: for activity at 10 µM: Pseudovirus, 293T/ACE2, read-out: % Infectivity of VSV-G pv
[1] = tested on: SARS-CoV-2 spike protein pseudovirus; assay: microbe, parasite or virus in culture; format: cell-based; conditions: for activity at 10 µM: 293T/ACE2, 48 h, read-out: % Infectivity of SARS-2-Spike pv

Row | SMILES | viability at 10 µM (in vitro) [%] | activity at 10 µM (VSV-G pseudovirus) [%] | activity at 10 µM [1] [%] | other results
1 | Cc1cc2c(s1)Nc1ccccc1N=C2N1CCN(C)CC1 [Olanzapine] | 106 | – | – | –
2 | COc1c2ccoc2cc2oc(=O)ccc12 [5-methoxypsoralen] | 111 | – | – | –
3 | CN1CCC(OC(c2ccccc2)c2ccccc2)CC1 [diphenylpyraline HCl] | – | 108 | 15 | viability (in vitro; % Viability of SARS-2-Spike pv): 106%
4 | c1cn2cc(-c3ccc4cn[nH]c4c3)nc(Nc3ccc(N4CCOCC4)cc3)c2n1 [GS-9973] | – | 1 | 0 | viability (in vitro): 69%
5 | CCc1cnn2c(NCc3ccc[n+]([O-])c3)cc(N3CCCC[C@H]3CCO)nc12 [dinaciclib] | – | 1 | 0 | viability (in vitro; % Viability of SARS-2-Spike pv): 55%
6 | CC(C)COc1ccc(CNC(=O)N(Cc2ccc(F)cc2)C2CCN(C)CC2)cc1 [pimavanserin] | – | 72 | 3 | viability (in vitro; % Viability of SARS-2-Spike pv): 70%
7 | CCOC(=O)c1ccc(C#Cc2ccc3c(c2)C(C)(C)CCS3)nc1 [tazarotene] | – | 102 | 225 | viability (in vitro; % Viability of SARS-2-Spike pv): 107%
8 | O=C(c1ccc(OCCN2CCCCC2)cc1)c1c(-c2ccc(O)cc2)sc2cc(O)ccc12 [raloxifene HCl] | – | 65 | 5 | viability (in vitro; % Viability of SARS-2-Spike pv): 92%; IC50 ([1]; 293T/ACE2, read-out: IC50 of SARS-CoV-2-S pseudovirus infectivity): 5.76 µM
9 | c1ccc2c(c1)sc1ccccc12 [Dibenzothiophene] | 102 | – | – | –
10 | CN1CCC(=C2c3ccccc3C=Cc3ccccc32)CC1 [cyproheptadine HCl] | – | 92 | 17 | viability (in vitro; % Viability of SARS-2-Spike pv): 94%
11 | Clc1ccc2c(c1)C(N1CCNCC1)=Nc1ccccc1O2 [amoxapine] | – | 95 | 20 | viability (in vitro; % Viability of SARS-2-Spike pv): 103%
12 | CCCCCOc1ccc(-c2ccc(-c3ccc(C(=O)N[C@H]4C[C@@H](O)[C@@H](O)NC(=O)[C@@H]5[C@@H](O)[C@@H](C)CN5C(=O)[C@H]([C@@H](C)O)NC(=O)[C@H]([C@H](O)[C@@H](O)c5ccc(O)cc5)NC(=O)[C@@H]5C[C@@H](O)CN5C(=O)[C@H]([C@@H](C)O)NC4=O)cc3)cc2)cc1 [anidulafungin] ({pTerphenylCO(4''-OnC5H11)}-[Orn(4R-OH,5R-OH)]T[Hyp][hTyr(3S-OH,4S-OH)]T[Pro(3S-OH,4S-Me)]; lactam 1-C) | – | 125 | 19 | viability (in vitro; % Viability of SARS-2-Spike pv): 109%
13 | CN1CCCCC1CCN1c2ccccc2Sc2ccc([S+](C)[O-])cc21 (centres unmarked) [Mesoridazine besylate] | – | – | – | viability at 10 µM (in vitro; % viability (Table S3)): 97%
14 | CCOC(=O)c1ncn2c1CN(C)C(=O)c1cc(F)ccc1-2 [flumazenil] | 104 | – | – | –
15 | CN1CCC(=C2c3ccccc3CC(=O)c3sccc32)CC1 [Ketotifen Fumarate] | 97 | – | – | –
16 | CN1CCN(C2=Nc3cc(Cl)ccc3Nc3ccccc32)CC1 [Clozapine] | 103 | – | – | –
17 | C=C1CC[C@H]2C(=C)CC[C@H]3C(=C)C(=O)O[C@@H]3[C@@H]12 [Dehydrocostus Lactone] | 90 | – | – | –
18 | CN1CCN2c3ccccc3Cc3ccccc3C2C1 (centres unmarked) [mianserin Hcl] | 100 | – | – | –
19 | CC(=O)[C@H]1CC[C@H]2[C@@H]3CCC4=CC(=O)CC[C@]4(C)[C@H]3CC[C@]12C [progesterone] | – | – | – | % Infectivity of SARS-2-Spike pv [1]: did not enhance infectivity
20 | COc1cc2c(Oc3ccc4[nH]c(C)cc4c3F)ncnc2cc1OCCCN1CCCC1 [cediranib (AZD217), cediranib] | – | 42 | 5 | viability (in vitro; % Viability of SARS-2-Spike pv): 85%
21 | Cc1ccnc2c1NC(=O)c1cccnc1N2C1CC1 [Nevirapine] | 103 | – | – | –
22 | CC(=O)Oc1cccc2c1C(=O)c1c(OC(C)=O)cc(C(=O)O)cc1C2=O [Diacerein] | 126 | – | – | –

Row | SMILES | viability at 10 µM (in vitro) [%] | activity at 10 µM (VSV-G pseudovirus) [%] | activity at 10 µM [1] [%] | other results
23 | CCOC(=O)c1c(CSc2ccccc2)n(C)c2cc(Br)c(O)c(CN(C)C)c12 [Arbidol] | – | 62 | 18 | –
24 | CNC(=O)c1ccccc1Sc1ccc2c(/C=C/c3ccccn3)n[nH]c2c1 [Axitinib (AG 013736), Axitinib] | – | 2 | 1 | viability (in vitro; % Viability of SARS-2-Spike pv): 69%
25 | NC(=O)N1CCC(CC(=O)N2CCC([C@H]3c4ncc(Br)cc4CCc4cc(Cl)cc(Br)c43)CC2)CC1 [lonafarnib] | 111 | – | – | –
26 | CC(=O)O[C@H]1Cc2ccccc2N(C(N)=O)c2ccccc21 [Eslicarbazepine acetate] | 102 | – | – | –
27 | COc1ccccc1OCCNCC(O)COc1cccc2[nH]c3ccccc3c12 (centres unmarked) [Carvedilol] | 81 | – | – | –
28 | CC(CN1c2ccccc2Sc2ccccc21)N(C)C (centres unmarked) [promethazine HCl] | – | 107 | 11 | viability (in vitro; % Viability of SARS-2-Spike pv): 99%
29 | COc1cc(Nc2ncc3c(n2)-c2ccc(Cl)cc2C(c2c(F)cccc2OC)=NC3)ccc1C(=O)O [MLN8237 (Alisertib), Alisertib] | 63 | 18 | 15 to 18 | viability (in vitro; % Viability of SARS-2-Spike pv): 63 to 83%
30 | CC(C)/N=c1\cc2n(-c3ccc(Cl)cc3)c3ccccc3nc-2cc1Nc1ccc(Cl)cc1 [Clofazimine] | 77 | – | – | –
31 | CN(C)CCC=C1c2ccccc2C=Cc2ccccc21 [cyclobenzaprine HCl] | – | 81 | 9 | viability (in vitro; % Viability of SARS-2-Spike pv): 101%
32 | OCCOCCN1CCN(C2=Nc3ccccc3Sc3ccccc32)CC1 [Quetiapine Fumarate] | – | – | – | viability at 10 µM (in vitro; % viability (Table S3)): 96%
33 | CN(C)CC/C=C1/c2ccccc2COc2ccc(CC(=O)O)cc21 [Olopatadine HCl] | 99 | – | – | –
34 | Nc1c2c(nc3ccccc13)CCCC2 [Tacrine hydrochloride] | – | – | – | viability at 10 µM (in vitro; % viability (Table S3)): 97%
35 | COc1cc2c(Oc3ccc(NC(=O)C4(C(=O)Nc5ccc(F)cc5)CC4)cc3F)ccnc2cc1OCCCN1CCOCC1 [Foretinib (GSK1363089), Foretinib] | – | 11 | 10 | viability (in vitro; % Viability of SARS-2-Spike pv): 63%
36 | COc1cc2c(cc1OC)CN(CCc1ccc(NC(=O)c3cccc4c(=O)c5cccc(OC)c5[nH]c34)cc1)CC2 [elacridar] | 97 | – | – | –
37 | NC(=O)N1c2ccccc2CC(=O)c2ccccc21 [Oxcarbazepine] | 109 | – | – | –
38 | NC1=NCC2c3ccccc3Cc3ccccc3N12 (centres unmarked) [Epinastine HCl] | – | – | – | viability at 10 µM (in vitro; % viability (Table S3)): 94%
39 | COc1ccc2cc1Oc1ccc(cc1)C[C@H]1c3c(cc4c(c3Oc3cc5c(cc3OC)CCN(C)[C@@H]5C2)OCO4)CCN1C [cepharanthine] | – | 1 | 1 | –
40 | CN1[C@@H]2CC[C@H]1C[C@@H](OC(c1ccccc1)c1ccccc1)C2 [benztropine mesylate] | – | 93 | 10 | viability (in vitro; % Viability of SARS-2-Spike pv): 96%
41 | CC1CCC2(OC1)OC1CC3C4CCC5CC(OC6OC(CO)C(O)C(O)C6OC6OC(CO)C(O)C(O)C6O)CCC5(C)C4CCC3(C)C1C2C (centres unmarked) [Timosaponin A3] | – | 85 | 5 | viability (in vitro; % Viability of SARS-2-Spike pv): 55%
42 | O=C1c2c(O)cccc2C([C@@H]2O[C@H](CO)[C@@H](O)[C@H](O)[C@H]2O)c2cc(CO)cc(O)c21 (some centres unmarked) [Aloin] | 103 | – | – | –
43 | Cc1cc(Nc2cc(CN3CCOCC3)c3nc(C)c(Cc4ccc(Cl)cc4F)n3n2)n[nH]1 [LY2784544] | – | 1 | 2 | viability (in vitro; % Viability of SARS-2-Spike pv): 76%
44 | C[C@]12CC[C@@H]3c4ccc(O)cc4CC[C@H]3[C@@H]1CC[C@@H]2O [estradiol] | – | – | – | % Infectivity of SARS-2-Spike pv [1]: did not enhance infectivity

Row | SMILES | viability at 10 µM (in vitro) [%] | activity at 10 µM (VSV-G pseudovirus) [%] | activity at 10 µM [1] [%] | other results
45 | COc1c2occc2cc2ccc(=O)oc12 [8-methoxypsoralen] | 105 | – | – | –
46 | C[C@]12CC[C@@H]3c4ccc(O)cc4CC[C@H]3[C@@H]1C[C@@H](O)[C@@H]2O [estriol] | – | – | – | % Infectivity of SARS-2-Spike pv [1]: did not enhance infectivity
47 | Clc1ccc2c(c1)CCc1cccnc1C2=C1CCNCC1 [desloratadine] | – | 82 | – | viability (in vitro; % Viability of SARS-2-Spike pv): 99%
48 | CC(=O)OCC[N+](C)(C)C [acetylcholine] | – | – | – | % Infectivity of SARS-2-Spike pv [1]: did not enhance infectivity
49 | CC(=O)c1c(C)c2cnc(Nc3ccc(N4CCNCC4)cn3)nc2n(C2CCCC2)c1=O.Cl [palbociclib HCl] | – | – | – | % Infectivity of VSV-G pv (VSV-G pseudovirus): 63%
50 | CC(C(=O)O)c1ccc2c(c1)[nH]c1ccc(Cl)cc12 (centres unmarked) [Carprofen] | 103 | – | – | –
51 | NCCc1c[nH]cn1 [histamine] | – | – | – | % Infectivity of SARS-2-Spike pv [1]: did not enhance infectivity
52 | CC(C(=O)O)c1ccc2c(c1)Cc1cccnc1O2 (centres unmarked) [Pranoprofen] | 114 | – | – | –
53 | CCc1cccc2c3c([nH]c12)C(CC)(CC(=O)O)OCC3 (centres unmarked) [Etodolac] | 100 | – | – | –
54 | CC(=O)c1c(C)c2cnc(Nc3ccc(N4CCNCC4)cn3)nc2n(C2CCCC2)c1=O [palbociclib isethionate] | – | 32 | – | –
55 | COc1ccc2cc1Oc1ccc(cc1)C[C@H]1c3cc(c(OC)cc3CCN1C)Oc1c(OC)c(OC)cc3c1[C@H](C2)N(C)CC3 [tetrandrine] | – | 39 | 1 | –
56 | NC(=O)N1c2ccccc2C=Cc2ccccc21 [Carbamazepine] | 105 | – | – | –
57 | Cc1cn([C@H]2C[C@H](N=[N+]=[N-])[C@@H](CO)O2)c(=O)[nH]c1=O [zidovudine] | – | – | – | % Infectivity of VSV-G pv (VSV-G pseudovirus): potently inhibited
58 | CN1CCN(C2=Nc3ccccc3Oc3ccc(Cl)cc32)CC1 [Loxapine Succinate] | 94 | – | – | –
59 | C=C1C(=O)[C@]23[C@H](O)[C@H]1CC[C@H]2[C@@]12CO[C@]3(O)[C@@H](O)[C@@H]1C(C)(C)CC[C@@H]2O [oridonin] | – | 37 | 9 | –
60 | CN1CCN2c3ncccc3Cc3ccccc3C2C1 (centres unmarked) [Mirtazapine] | 104 | – | – | –
61 | CCC(=O)NCC[C@@H]1CCc2ccc3c(c21)CCO3 [Ramelteon] | 99 | – | – | –
62 | C[C@]12CCC(=O)C=C1[C@@H]1C[C@@H]1[C@H]1[C@@H]3[C@@H]4C[C@@H]4[C@@]4(CCC(=O)O4)[C@@]3(C)CC[C@@H]12 [Drospirenone] | – | 381 | – | –
63 | NCCc1c[nH]c2ccc(O)cc12 [serotonin] | – | – | – | % Infectivity of SARS-2-Spike pv [1]: did not enhance infectivity
64 | CN1CCC(=C2c3ccccc3CCn3c(C=O)cnc32)CC1 [Alcaftadine] | 97 | – | – | –
